These results are taken from patent US5157052A, “Method for inhibiting IgE production” (priority 1990, dated 1992).

This assay has as its system IgE. The assay can be described thus: Secondary antigen-specific IgE response to TNP-KLH on alum. The class given is in vivo, mouse (Balb/c female). Conditions: 20 μg IP 3x daily days 24 and 25. Here is the method:
ELISA (enzyme linked immunosorbant assay) measurements of IgE are as follows. About 5 μg of B1E3 antibody in 100 μl borate buffered saline (pH8.5) is added to wells of a NuncImmulon II 96 well plate (DiRuscio & Assoc., St. Louis, Mo.) at 37° C. for 90 minutes. The non-bound antibody is removed by flicking the plate. Unreacted sites on the plastic plate are blocked by adding about 200 μl of a 2% solution of newborn bovine serum (NBS) in PBS at 37° C. for 60 minutes. The standard IgE (or an unknown murine serum sample) is diluted to between about 4 ng/ml-256 ng/ml in Hanks-HS (20 mM Hepes, 2% NBS in Hanks Balanced Salt Solution, Gibco, Grand Island, N.Y.) or to 1/200 to 1/1000 in Hanks-HS respectively. 100 μl of standard (or unknown dilutions) are added in triplicate to the wells of the plate and allowed to absorb to B1E3 antibody at about 37° C. for 2-4 hours. The solution is removed by flicking the plate and each well is washed with about 0.5 ml 0.05% Tween 20-PBS 5 times. About 100 μl of biotinylated R1E4, called the primary antibody, diluted to 200 ng/ml is added to all wells and incubated at about 4° C. overnight. The solution is removed by flicking the plate and washed 5 times as described above. The developing reagent (Avidin and biotin-horse radish peroxidase) is incubated in 2% NBS in PBS at ambient temperature for 30 minutes, according to manufacturer's specifications (Vector Laboratories, Burlingame, Calif.). About 100 μl of developing reagent is added to each well and incubated at ambient temperature for 30 minutes. Colorimetric substrate for the developing reagent (ABTS peroxidase substrate system, KPL, Gaithersburg, Md.) is prepared by mixing equal volumes of solutions A and B and incubating at ambient temperature for 60 minutes. The developing reagent solution is removed by flicking the plate and washed 5 times as described above. About 100 μl of the mixture of substrates is added to each well and incubated at ambient temperature for 60 minutes. The optical density of each well is determined on a BioTek ELISA reader (Biotek Instruments, Inc., Burlington, Vermont) and the absorbance data transferred electronically to a DEC VAX mainframe computer. A standard curve is fitted to the IgE standard optical densities using straight line, linear regression statistical fits. IgE in the unknown serum samples is determined by comparing the optical density of the unknown to the standard curve and multiplying that number by the dilution of serum used in the assay.
Stimulation of a secondary antigen-specific IgE response in mouse with haptenated antigen absorbed on alum is inhibited by (±) methyl 11α,16-dihydroxy-16-methyl-9-oxoprosta-5Z,13E-dien-1-oate. Three groups of 7 Balb/c female mice were treated as follows. […]

With `CCCCC(C)(O)C/C=C/[C@H]1[C@H](O)CC(=O)[C@@H]1C/C=C\CCCC(=O)OC` (mixture of isomers) [(±) methyl 11α,16-dihydroxy-16-methyl-9-oxoprosta-5Z,13E-dien-1-oate], the “secondary IgE response” value is “inhibited from the synthesis of a secondary IgE response”. For the same compound, where the note is “day 28, p < .02 (boosted control 28,568)”, the “IgE ± SD” value is recorded as 14,448 ± 4926 ng/ml. The “IgE ± SD” value (day 30, p < .016 (boosted control 22,564)) came out at 7564 ± 1528 ng/mL. The “IgE ± SD” value (day -1 baseline before treatment) is 1487 ± 138 ng/mL.
